The record followed here is PMC10073473, “Integrative omics-analysis of lipid metabolism regulation by peroxisome proliferator-activated receptor a and b agonists in male Atlantic cod” (Frontiers in Physiology, 2023).

The assay has as its target T1, Pparb (gmPparb) (Gadus morhua, UniProt A0A8C4ZA29).
T1 construct: gene PPARD
T1 sequence (A0A8C4ZA29 216-511 limits assumed): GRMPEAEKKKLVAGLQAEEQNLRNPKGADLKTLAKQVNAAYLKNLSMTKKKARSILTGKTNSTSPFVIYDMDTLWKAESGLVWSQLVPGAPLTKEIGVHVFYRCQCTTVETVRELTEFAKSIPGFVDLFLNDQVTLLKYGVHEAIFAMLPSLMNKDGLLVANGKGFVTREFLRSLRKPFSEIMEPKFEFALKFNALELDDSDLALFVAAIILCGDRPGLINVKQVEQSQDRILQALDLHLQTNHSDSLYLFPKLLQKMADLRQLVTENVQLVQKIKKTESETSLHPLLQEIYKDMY
The assay is described as follows: GAL4-LBD luciferase reporter gene assay in COS-7 cells. It is filed as cell-based. A general note: Reporter assays use an easily measured gene product as a stand-in for the process of interest.

As to `Cc1cc(SCc2sc(-c3ccc(C(F)(F)F)cc3)nc2C)ccc1OCC(=O)O` [GW501516, 2-[2-Methyl-4-[[[4-methyl-2-[4-(trifluoromethyl)phenyl]-5-thiazolyl]methyl]thio]phenoxy]-acetic acid], the response was half-maximal at 5.9 µM (EC50).
